In US20030114383A1, “Calcitonin-like sequence expressed by gonadotropes of the anterior pituitary” (priority 2001, published 2003):
Bridges are numbered along the chain shown (N, C = ends). Where no end group is shown, it is not given here.

B1: Pit-CT: anterior pituitary-derived peptide with sequence homology to calcitonin; mature peptide SEQ. ID No. 3 and No. 4 (protein)
chain: QDQESPLRKHCLAPSGSPQAELQGTAHQEGIMGFLKFSPFLVVSILLLYQACSLQAVPLRSILGSSPGMATLSEEVRLLAAALVQDYMGMKPRELEQEEEQEAEGSSLDSPRSKRCGNLTTCMLGTYTQDLDLFHTFPQTSIGVEALGGEKGCGQGLGDLPPIPFWQLSSSFSPF
modifications: left off: small tags and cut ends

Key:
[1] = test system: perifused rat AP cells; conditions: exogenously added; cited from earlier work
[2] = test system: lactotrope; conditions: rats; cited from earlier work
[3] = test system: GGH3 cells; experiment: Two-tier co-culture of CT transfectants with GGH3 cells: PRL release by RIA; assay type: cell-based, rat; conditions: summary statement
Experimental: Levels of CTI and PRL in the conditioned media of LβT2 cells and CT-transfectants were determined by radioimmunoassay (RIA). The PRL RIA used the reagents provided by the National Institute of Diabetes, Digestive and Kidney diseases (NIDDK), and the assay protocol recommended by the NIDDK was followed. CTI was determined as described previously. All samples from this series of experiments were concurrently run in duplicate in the same RIA. Protein A (IgG Sorb) was used for the separation of bound from free hormone antigen. The experiments were repeated at least three separate times, and data from all the experiments were pooled for statistical analysis.
To further examine the role of pituitary-derived CT in lactotrope function, a two-tier co-culture system was developed where b 1×10^5 LβT2 cells or CT transfectants (CT.U6/A or CT.U6/B) are cultured separately in an upper chamber insert, whereas 2×10^5 GGH3 cells per well (target cells) are cultured in a 12-well plate. […] The conditioned media were analyzed for PRL by RIA. […]
The results on PRL release are expressed as ng PRL released by 100,000 cells over 24 hours. The results on PRL mRNA were digitized, normalized with β-actin mRNA and expressed as normalized densitometric units. […]

Molecule | PRL release from perifused rat AP cells [1] | Secretion of GH, FSH, LH or TSH from perifused rat AP cells [1] | Inhibition of PRL gene transcription and lactotrope cell proliferation [2] | Inhibition of prolactin secretion by the pituitary of rats [3]
salmon calcitonin (CSNLSTCVLGKLSQELHKLQTYPRTNTGSGTP-NH2; disulfide 1-7) [SCT, calcitonin-like peptide derived from salmon] | significantly attenuates | without altering | potent inhibitor | –
B1 | – | – | – | very potent inhibitor
